The values that follow are results of earlier work, collected in US20220249605A1, “Treatment of Mood and Anxiety Disorders” (Icahn School of Medicine At Mount Sinai, priority 2013, published 2022).

pEC50, pIC50, pKi: −log10 of the molar value. Bridge positions count the residues as written; N and C are the ends. Ends that are not written are not given here.

For one data set, the target named is T1, NPY Y2 receptor (Homo sapiens, UniProt P49146).
T1 sequence (P49146 1-381): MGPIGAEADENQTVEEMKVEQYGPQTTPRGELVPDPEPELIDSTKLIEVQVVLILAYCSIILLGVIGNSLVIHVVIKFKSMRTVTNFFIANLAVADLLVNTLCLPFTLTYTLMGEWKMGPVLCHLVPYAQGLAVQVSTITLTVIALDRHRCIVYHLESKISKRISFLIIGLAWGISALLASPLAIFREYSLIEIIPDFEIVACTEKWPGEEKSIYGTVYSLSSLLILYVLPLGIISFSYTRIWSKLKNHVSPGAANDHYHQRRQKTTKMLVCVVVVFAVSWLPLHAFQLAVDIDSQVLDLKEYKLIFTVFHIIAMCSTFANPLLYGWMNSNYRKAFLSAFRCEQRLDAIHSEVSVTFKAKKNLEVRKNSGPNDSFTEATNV
As to conditions: read-out: IC50, Y2 receptor antagonist.

The subject of data set [1] is norepinephrine-stimulated cAMP accumulation in SK-N-MC cells. As to conditions: read-out: EC50, inhibition of norepinephrine-stimulated cAMP accumulation. A general note: cAMP levels reflect the balance of adenylyl cyclase and phosphodiesterase activity.
The target of another data set is T2, Y1 receptors (Homo sapiens, UniProt P25929).
T2 sequence (P25929 1-384): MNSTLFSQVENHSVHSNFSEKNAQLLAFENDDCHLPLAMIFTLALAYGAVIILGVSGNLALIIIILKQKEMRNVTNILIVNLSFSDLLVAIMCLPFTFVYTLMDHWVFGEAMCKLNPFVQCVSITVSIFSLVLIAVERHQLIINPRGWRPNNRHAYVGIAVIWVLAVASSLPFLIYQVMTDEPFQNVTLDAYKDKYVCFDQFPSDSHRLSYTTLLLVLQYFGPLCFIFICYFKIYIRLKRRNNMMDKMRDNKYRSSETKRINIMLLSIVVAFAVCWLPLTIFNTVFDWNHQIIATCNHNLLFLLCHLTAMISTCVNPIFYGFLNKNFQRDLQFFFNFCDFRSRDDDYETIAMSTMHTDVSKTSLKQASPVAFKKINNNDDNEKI

For data set [2] the following is noted: anesthetized rats and dogs.
The conditions of data set [3]: anesthetized rats.

For `CN(C)S(=O)(=O)c1ccc(NC(=S)N2CCC(C(O)(c3ccccc3)c3ccccc3)CC2)cc1` [CYM 9484], at NPY Y2 receptor, the pIC50 is 7.72. Consider “(Leu^31, Pro^34)-Neuropeptide Y [H-3306]”, for which the “Specificity (Y1 receptor)” value in the data set on Y1 receptor is “Specific Y1 receptor”. As to “Tyr-Lys-Gly-(Cyclo(Glu^26-Lys^29), Pro^34)-Neuropeptide Y (25-36) (YKGREYIKLITRPRY; lactam 5-8; ends not checked) [H-3972]”, in data set [1], the negative logarithm of the EC50 (pEC50) was 7.92. Also, the pKi with Y1 receptors is 7.80. For the compound (Pro^34)-Neuropeptide Y [H-8580], the “Specificity (Y1 receptor)” value in the data set on Y1 receptor was “selective NPY agonist”. In addition, in data set [2], the “Effect on blood pressure” value is “increased blood” and the “Inhibitory effects on cardiac vagal action” value is “contrast, showed no”. Consider “(Leu^31, Pro^34)-Neuropeptide Y [H-8575]”, for which the “Specificity (Y1 receptor)” value in the data set on Y1 receptor was “selective ligand for”. In addition, in data set [3], the “Potency in increasing blood pressure compared with NPY” value is reported as “showing an even higher”.

The pIC50 is −log10 of the IC50, conventionally taken in molar units. In general, pEC50 refers to the negative decadic logarithm of the EC50, by convention in mol/L. A word on the pKi: it is −log10 of the Ki, conventionally taken in molar units.
